Reference: patent US20120184035A1, “Methods and Compositions For Reprogramming Cells” (priority 2011, published 2012)
Entries after “also recorded” stand apart in the source; their conditions may differ.

Tested on: 293T cells
Assay: RT-PCR of muscle specific gene expression in permeabilized 293T cells incubated with cell extracts, with or without transcription modifying agents or conditioned media
Assay type: cell-based, human
Description: A hallmark of a particular cell type is its gene expression profile. Reverse-Transcription of the expressed RNA in a cell, combined with Polymerase Chain Reaction aided amplification of the signal (RT-PCR), was used to detect the expression levels of these genes and provide a method to detect cell reprogramming. This example illustrates RT-PCR assays for detection of muscle specific genes in C2C12 cells (FIG. 5). Total RNA prepared from C2C12 cells at different stages of differentiation (t=0, t=3, t=6) or from 293T cells or HeLa cells were used in an RT-PCR reaction with primers specific to the muscle specific genes, MyoD or Myogenin. […] RT-PCR conditions for the detection of late muscle specific genes Troponin T and Myosin Heavy Chain, and for the hES cell marker Oct-4, were also established. Due to its relatively high sensitivity, gene expression analysis using RT-PCR was used to detect expression of marker genes in permeablized and potentially reprogrammed recipient cells.
Cell extracts were introduced into a recipient cell by reversible permeabilization of recipient cells using the pore-forming, calcium sensitive bacterial toxin Streptolysin O (SLO) and exposure of these cells to reprogramming cell extracts. Limited and transient exposure of cells to low doses of SLO in the absence of calcium ions allows the formation of membrane pores large enough to allow the passive diffusion of proteins up to the size of 100 kilodaltons, but not large enough for organelles. Subsequently, reversal of this membrane permeabilization by adding calcium ions allows the membrane to repair itself and the resealed cells are viable and can proliferate. During the permeabilization process, the recipient cell was incubated with whole cell extracts or nuclear or cytoplasmic extracts of a desired cell type (“donor cell”), and (in some experiments) in the presence of permeabilization/reprogramming promoting agents such as an energy generating system and cytoskeletal disruptors. The whole cell extract is believed to provide regulatory factors that are taken up by the permeabilizing recipient cell. The plasma membrane was then resealed, the cells were allowed to recover and cultured further, in conditions conducive to desired reprogramming. […] The resultant changes in gene expression profiles may arise over time, and may be further promoted by subsequent rounds of treatment with donor cell extract.
Cells were treated with reprogramming extracts (or control 293T “self” extracts) as above.
We next turned to testing the effects of these treatments on reprogramming potential by evaluating reprogramming of 293T or primary NHDF-N cells incubated with cell extracts from the C2C12 muscle differentiating system by gene expression analysis (RT-PCR). In the case of examining the effects of transcription modifying agents, several variations of treatment plans were envisioned. The agents can be applied before or after permeabilizing the cells (or both) and for different durations of time, as long as the cells survive the treatment. Plausibly, different treatment designs could potentially lead to different effects.

[1] = agents applied after priming/permeabilization of C2C12 extract exposed 293T cells, 5-aza 10 uM, SB 10 mM, TSA 10 nM
[2] = agents for 48 hours before permeabilization, 293T self extract

Nc1ncn([C@@H]2O[C@H](CO)[C@@H](O)[C@H]2O)c(=O)n1 [5-azacytidine]
MyoD expression in cells primed with control self extract (agent applied post priming, 293T self extract): low level of expression of MyoD | level of MyoD RNA detection [1]: did not appear to enhance the level of MyoD expression | MyoD expression in cells incubated with control self extract [2]: low level of expression of MyoD | level of MyoD RNA detection (agents for 48 hours before permeabilization, C2C12 extract incubated 293T cells, relative to C2C12 extract alone): appeared to enhance the level detection of this RNA; also recorded: enhance the level detection of this RNA slightly | Troponin T transcript at later timepoints (later timepoints, modifier treated and C2C12 extract incubated 293T cells): more abundant and more specific

CC(/C=C/C(=O)NO)=C\[C@@H](C)C(=O)c1ccc(N(C)C)cc1 [Trichostatin A]
level of MyoD RNA detection [1]: did not appear to enhance the level of MyoD expression | level of MyoD RNA detection (agents for 48 hours before permeabilization, C2C12 extract incubated 293T cells, relative to C2C12 extract alone, listed as TSA): appeared to enhance the level detection of this RNA; also recorded: enhance the level detection of this RNA slightly

CCCC(=O)[O-].[Na+] [Sodium Butyrate]
level of MyoD RNA detection [1]: small increase in expression | level of MyoD RNA detection (agents applied after priming/permeabilization of C2C12 extract exposed 293T cells, 5-aza 10 uM, SB 10 mM, TSA 10 nM, listed as SB): did not appear to enhance the level of MyoD expression | MyoD expression in cells incubated with control self extract [2]: low level of expression of MyoD | level of MyoD RNA detection (agents for 48 hours before permeabilization, C2C12 extract incubated 293T cells, relative to C2C12 extract alone, listed as SB): appeared to enhance the level detection of this RNA; also recorded: enhance the level detection of this RNA slightly
